Laboratory results published in patent publication US9562031B1, “Phenethyldihydrobenzodioxolones and methods of use” (Sequoia Sciences, Inc., priority 2015, dated 2017).
pIC50: −log10 of the molar value. Values joined by “and” are separate entries in the source; they are usually repeats but may differ in a detail not shown here. Equal values may be shown once.

Legend:
[1] = system: DLD-1 cells; test: antiproliferation assay, paclitaxel-resistant DLD-1; type: cell-based; details: Homo sapiens
Procedure: (§1) For the antiproliferation assay, NCI-H460 (large cell lung carcinoma) or M14 (amelanotic melanoma) cells were grown in RPMI-1640 with 10% FBS supplemented with L-glutamine and HEPES. Cells were seeded into 96-well plates at 5×10^2 to 5×10^4 cells/well and allowed to adhere overnight; the medium was then removed. A stock solution of test compound in DMSO was diluted in medium to generate a series of working solutions. Aliquots (100 μl) of the working solutions were then added to the appropriate test wells to expose cells to the final concentrations of compound in a total volume of 100 μl. Seven different concentrations were tested, with 2-5 wells per concentration. Camptothecin was used as a positive control; wells containing vehicle without compound were used as negative controls. Plates were kept for 72 h in a 37° C., 5% CO2 incubator. After incubation, viable cells were detected with the CELLTITER 96 AQueous Non-Radioactive Cell Proliferation Assay (Promega), and IC50 values were determined using GraphPad Prism 5 software.
Compound 4 was tested for antiproliferation activity against several paclitaxel-resistant human cancer cell lines.

[2] = system: K-562 cells; test: antiproliferation assay, K-562; type: cell-based; details: Homo sapiens, K562
Procedure: as §1
(§2) Antiproliferation of several of the active compounds was tested against additional cell lines.

[3] = system: NCI-H727 xenograft tumors; test: tumor growth inhibition, NCI-H727 murine xenograft model; type: in vivo, mice; details: IP 40 mg/kg, days 0,1,2,5,6,7,10,11,12
Procedure: (§3) Tumor growth inhibition of compound 4 was measured in several murine xenograft models, and the results of individual experiments are listed in Table 14. Tumors were initiated by subcutaneous injection of either tumor cells from cell culture or tumor fragments from continuous in vivo passage. When tumors reached volumes between approximately 100 and 200 mm^3, the mice were divided into vehicle and treatment groups. Compound or vehicle was administered by IP injection in a volume of 5-10 mL/kg.
(§4) Changes in tumor weight (delta weights) for each treated (T) and control (C) group are calculated for each day tumors are measured by subtracting the median tumor weight on the first day of treatment (staging day) from the median tumor weight on the specified observation day. These values are used to calculate a percent T/C as follows: % T/C=(delta T/delta C)×100. The optimal T/C is the minimal value obtained after the first treatment.

[4] = system: OVCAR-3 cells; test: antiproliferation assay, OVCAR-3; type: cell-based; details: Homo sapiens
Procedure: as §1, §2

[5] = system: NCI-H187 cells; test: antiproliferation assay, NCI-H187; type: cell-based; details: Homo sapiens
Procedure: as §1, §2

[6] = system: NCI-H460 (lung) xenograft tumors; test: tumor growth inhibition, NCI-H460 murine xenograft model; type: in vivo, mice
Procedure: as §3, §4

[7] = system: OVCAR-3 cells; test: NCI-60 panel antiproliferation, OVCAR-3; type: cell-based, human; details: Homo sapiens, NCI 60-cell panel
Procedure: (§5) Bifidenone and Compound 37 were tested for antiproliferation activity against the NCI-60 panel of cancer cell lines. COMPARE analysis was then conducted to compare the activity “fingerprint” of bifidenone to those of known classes of compounds (Zhou, B.-N., Hoch, J. M., Johnson, R. K., Mattern, M. R., Eng, W.-K., Ma, J., Hecht, S. M., Newman, D. J., Kingston, D. G. I., 2000. Use of COMPARE Analysis to Discover New Natural Product Drugs: Isolation of Camptothecin and 9-Methoxycamptothecin from a New Source. Journal of Natural Products 63, 1273-1276.).

[8] = system: SF-268 cells; test: NCI-60 panel antiproliferation, SF-268; type: cell-based, human; details: Homo sapiens, NCI 60-cell panel
Procedure: as §5

[9] = system: U251 cells; test: NCI-60 panel antiproliferation, U251; type: cell-based, human; details: Homo sapiens, U-251, NCI 60-cell panel
Procedure: as §5

[10] = system: Hs578T cells; test: NCI-60 panel antiproliferation, Hs578T; type: cell-based, human; details: Homo sapiens, Hs-578T, NCI 60-cell panel
Procedure: as §5

[11] = system: SK-Mel-2 cells; test: NCI-60 panel antiproliferation, SK-MEL-2; type: cell-based, human; details: Homo sapiens, NCI 60-cell panel
Procedure: as §5

[12] = system: SF-539 cells; test: NCI-60 panel antiproliferation, SF-539; type: cell-based, human; details: Homo sapiens, NCI 60-cell panel
Procedure: as §5

[13] = system: MALME-3M cells; test: NCI-60 panel antiproliferation, MALME-3M; type: cell-based, human; details: Homo sapiens, NCI 60-cell panel
Procedure: as §5

[14] = system: COLO205 cells; test: NCI-60 panel antiproliferation, COLO205; type: cell-based, human; details: Homo sapiens, COLO 205, NCI 60-cell panel
Procedure: as §5

[15] = system: A498 cells; test: NCI-60 panel antiproliferation, A498; type: cell-based, human; details: Homo sapiens, NCI 60-cell panel
Procedure: as §5

[16] = system: OVCAR-8 cells; test: NCI-60 panel antiproliferation, OVCAR-8; type: cell-based, human; details: Homo sapiens, NCI 60-cell panel
Procedure: as §5

[17] = system: SK-OV-3 cells; test: NCI-60 panel antiproliferation, SK-OV-3; type: cell-based, human; details: Homo sapiens, NCI 60-cell panel
Procedure: as §5

[18] = system: CCRF-CEM cells; test: NCI-60 panel antiproliferation, CCRF-CEM; type: cell-based, human; details: Homo sapiens, NCI 60-cell panel
Procedure: as §5

[19] = system: SN12C cells; test: NCI-60 panel antiproliferation, SN12C; type: cell-based, human; details: Homo sapiens, NCI 60-cell panel
Procedure: as §5

[20] = system: TK-10 cells; test: NCI-60 panel antiproliferation, TK-10; type: cell-based, human; details: Homo sapiens, NCI 60-cell panel
Procedure: as §5

[21] = system: UACC-257 cells; test: NCI-60 panel antiproliferation, UACC-257; type: cell-based, human; details: Homo sapiens, NCI 60-cell panel
Procedure: as §5

[22] = system: HOP-62 cells; test: NCI-60 panel antiproliferation, HOP-62; type: cell-based, human; details: Homo sapiens, NCI 60-cell panel
Procedure: as §5

[23] = system: UACC-62 cells; test: NCI-60 panel antiproliferation, UACC-62; type: cell-based, human; details: Homo sapiens, NCI 60-cell panel
Procedure: as §5

[24] = system: KM12 cells; test: NCI-60 panel antiproliferation, KM12; type: cell-based, human; details: Homo sapiens, NCI 60-cell panel
Procedure: as §5

[25] = system: SNB-75 cells; test: NCI-60 panel antiproliferation, SNB-75; type: cell-based, human; details: Homo sapiens, NCI 60-cell panel
Procedure: as §5

[26] = system: ACHN cells; test: NCI-60 panel antiproliferation, ACHN; type: cell-based, human; details: Homo sapiens, NCI 60-cell panel
Procedure: as §5

[27] = system: NCI-ADR/RES cells; test: NCI-60 panel antiproliferation, NCI-ADR/RES; type: cell-based, human; details: Homo sapiens, NCI 60-cell panel
Procedure: as §5

[28] = system: MCF-7 cells; test: NCI-60 panel antiproliferation, MCF-7; type: cell-based, human; details: Homo sapiens, MCF7, NCI 60-cell panel
Procedure: as §5

[29] = system: Caki-1 cells; test: NCI-60 panel antiproliferation, Caki-1; type: cell-based, human; details: Homo sapiens, NCI 60-cell panel
Procedure: as §5

[30] = IP 30 mg/kg, days 0,1,2,3,5,6,7,8,10,11,12,13
[31] = IP 60 mg/kg, days 0,1,2,5,6,7,10,11,12

## C=CC[C@H]1C[C@]2([C@H](C)Cc3cc(O)c(OC)cc3F)OCOC2=CC1=O (relative stereo) [Compound 4, 6-allyl-7a-(1-(2-fluoro-5-hydroxy-4-methoxyphenyl)propan-2-yl)-7,7a-dihydrobenzo[d][1,3]dioxol-5(6H)-one]
[1]
  pIC50: > 8.30
[2]
  pIC50: 7.89
[3]
  Maximum Mean Body Weight Loss: 0%
  Optimal T/C: 30%
[4]
  pIC50: 7.92
[5]
  pIC50: 7.68
[6]; [30]
  Maximum Mean Body Weight Loss: 7%
  Optimal T/C: 42%
[6]; IP 40 mg/kg, days 0,1,2,5,6,7,10,11,12 (two experiments)
  Maximum Mean Body Weight Loss: 7%
[6]; IP 40 mg/kg, days 0,1,2,5,6,7,10,11,12 (two experiments), 40 mg/kg
  Optimal T/C: 29% and 35%
[6]; [31]
  Maximum Mean Body Weight Loss: 9%
  Optimal T/C: 40%

## C=CC[C@H]1C[C@]2([C@@H](C)Cc3ccc(OC)c(F)c3)OCOC2=CC1=O [Compound 37, (6S,7aR)-6-allyl-7a-((S)-1-(3-fluoro-4-methoxyphenyl)propan-2-yl)-7,7a-dihydrobenzo[d][1,3]dioxol-5(6H)-one]
[7]
  pIC50: 7.40
[8]
  pIC50: 6.21
[9]
  pIC50: 6.91
[10]
  pIC50: 7.14
[11]
  pIC50: 7.29
[12]
  pIC50: 7.13
[13]
  pIC50: 7.41
[14]
  pIC50: 7.17
[15]
  pIC50: 7.24
[16]
  pIC50: 6.96
[17]
  pIC50: 7.41
[18]
  pIC50: 7.22
[19]
  pIC50: 6.46
[20]
  pIC50: 6.97
[21]
  pIC50: 7.37
[22]
  pIC50: 6.99
[23]
  pIC50: 7.46
[24]
  pIC50: 7.26
[25]
  pIC50: 7.31
[26]
  pIC50: 7.49
[27]
  pIC50: 7.33
[28]
  pIC50: 7.20
[29]
  pIC50: 7.01
